Measured values published in the NIST ThermoML archive (doi:10.1016/j.jct.2004.08.003).
± gives the expanded uncertainty stated by the source.

Tests used:
[1] = relative permittivity at various frequencies (dimensionless); settings: 101.3 kPa, Liquid, Frequency=1 MHz, HP4284A LCR Meter with HP16452A measuring cell
[2] = 101.33 kPa, Liquid

SMILES	relative permittivity ([1]; 288.15 K)	relative permittivity ([1]; 293.15 K)	relative permittivity ([1]; 298.15 K)	relative permittivity ([1]; 303.15 K)	relative permittivity ([1]; 308.15 K)	relative permittivity ([1]; 318.15 K)	relative permittivity ([1]; 328.15 K)	mass density ([2]; 288.15 K) [kg/m3]	mass density ([2]; 293.15 K) [kg/m3]	mass density ([2]; 298.15 K) [kg/m3]	mass density ([2]; 303.15 K) [kg/m3]	mass density ([2]; 308.15 K) [kg/m3]	mass density ([2]; 318.15 K) [kg/m3]	mass density ([2]; 328.15 K) [kg/m3]
CCCCCCCCCCCC [dodecane]	2.04 ± 0.04	2.03 ± 0.04	2.02 ± 0.04	2.02 ± 0.04	2.01 ± 0.04	2 ± 0.04	1.99 ± 0.04	752.44 ± 0.64	748.8 ± 0.65	745.19 ± 0.65	741.57 ± 0.66	737.93 ± 0.66	730.7 ± 0.67	723.32 ± 0.68
CCCCCCCCC [nonane]	1.99 ± 0.04	1.99 ± 0.04	1.98 ± 0.04	1.97 ± 0.04	1.96 ± 0.04	1.95 ± 0.04	1.94 ± 0.04	721.77 ± 0.6	717.76 ± 0.6	713.77 ± 0.61	709.89 ± 0.61	706.2 ± 0.62	698.14 ± 0.63	690.14 ± 0.64
COCCOCCOCCOC [2,5,8,11-tetraoxadodecane]	7.88 ± 0.16	7.73 ± 0.15	7.58 ± 0.15	7.46 ± 0.15	7.33 ± 0.15	7.09 ± 0.14	6.88 ± 0.14	989.16 ± 0.76	984.16 ± 0.78	979.61 ± 0.8	974.85 ± 0.82	970.85 ± 0.84	960.67 ± 0.89	951.06 ± 0.94
